Laboratory results published in patent publication US20100190755A1, “TETRACYCLINE COMPOUNDS FOR THE TREATMENT OF RHEUMATOID ARTHRITIS AND RELATED METHODS OF TREATMENT” (priority 2008, published 2010).
≈ marks a conversion by molar mass, not a printed value.

Tested on: S. aureus RN450
Assay: Antibacterial activity MIC, Gram+ (Table 9)
Format: cell-based
Settings: Staphylococcus aureus, CAMHB, 35° C., approximately 18 hr
Protocol: (§1) 2 mg of each compound is dissolved in 100 μl of DMSO. The solution is then added to cation-adjusted Mueller Hinton broth (CAMHB), which results in a final compound concentration of 200 μg per ml. The tetracycline compound solutions are diluted to 50 μL volumes, with a test compound concentration of 0.098 μg/ml. Optical density (OD) determinations are made from fresh log-phase broth cultures of the test strains. Dilutions are made to achieve a final cell density of 1×10^6 CFU/ml. At OD=1, cell densities for different genera should be approximately:
(§2) 50 μl of the cell suspensions are added to each well of microtiter plates. The final cell density should be approximately 5×10^5 CFU/ml. These plates are incubated at 35° C. in an ambient air incubator for approximately 18 hr. The plates are read with a microplate reader and are visually inspected when necessary. The MIC is defined as the lowest concentration of the tetracycline compound that inhibits growth.

Compared with `CCc1cc(N(C)C)c2c(c1O)C(=O)C1=C(O)[C@]3(O)C(=O)C(C(N)=O)=C(O)[C@@H](N(C)C)[C@@H]3C[C@@H]1C2` [H], `CO/N=C(\C)c1cc(N(C)C)c2c(c1O)C(=O)C1=C(O)[C@]3(O)C(=O)C(C(N)=O)=C(O)[C@@H](N(C)C)[C@@H]3C[C@@H]1C2` [K] is 8-fold higher in MIC: 0.5 µg/mL (≈ 1.03 µM) for the first, 4 µg/mL (≈ 7.57 µM) for the second.

Compared with `CN(C)[C@@H]1C(O)=C(C(N)=O)C(=O)[C@@]2(O)C(O)=C3C(=O)c4c(O)ccc(C5=CCNCC5)c4C[C@H]3C[C@@H]12` [L], `CN(C)[C@@H]1C(O)=C(C(N)=O)C(=O)[C@@]2(O)C(O)=C3C(=O)c4c(O)ccc(-c5ccc(O)cc5)c4C[C@H]3C[C@@H]12` [N] is 33-fold lower in MIC: 2 µg/mL (≈ 4.04 µM) for the first, 0.06 µg/mL (≈ 0.118 µM) for the second.

With `CN(C)c1cc(-c2ncco2)c(O)c2c1C[C@H]1C[C@H]3[C@H](N(C)C)C(O)=C(C(N)=O)C(=O)[C@@]3(O)C(O)=C1C2=O` [O] the MIC was 32 µg/mL (≈ 61 µM).

Tested on: E. coli 25922
Assay: Antibacterial activity MIC, Gram- (Table 9)
Format: cell-based
Settings: Escherichia coli, CAMHB, 35° C., approximately 18 hr
Protocol: as §1, §2

`CCc1cc(N(C)C)c2c(c1O)C(=O)C1=C(O)[C@]3(O)C(=O)C(C(N)=O)=C(O)[C@@H](N(C)C)[C@@H]3C[C@@H]1C2` [H] and `CO/N=C(\C)c1cc(N(C)C)c2c(c1O)C(=O)C1=C(O)[C@]3(O)C(=O)C(C(N)=O)=C(O)[C@@H](N(C)C)[C@@H]3C[C@@H]1C2` [K] cannot be ordered by MIC: > 64 µg/mL for the first, > 64 µg/mL for the second.

First: CN(C)[C@@H]1C(O)=C(C(N)=O)C(=O)[C@@]2(O)C(O)=C3C(=O)c4c(O)ccc(C5=CCNCC5)c4C[C@H]3C[C@@H]12 [L]
Second: CN(C)[C@@H]1C(O)=C(C(N)=O)C(=O)[C@@]2(O)C(O)=C3C(=O)c4c(O)ccc(-c5ccc(O)cc5)c4C[C@H]3C[C@@H]12 [N]
The MIC of the first is 130-fold higher: 64 µg/mL (≈ 129 µM) for the first, 0.5 µg/mL (≈ 0.987 µM) for the second.

For `CN(C)c1cc(-c2ncco2)c(O)c2c1C[C@H]1C[C@H]3[C@H](N(C)C)C(O)=C(C(N)=O)C(=O)[C@@]3(O)C(O)=C1C2=O` [O], the MIC was > 64 µg/mL.

Tested on: collagen-induced arthritis (CIA) in male DBA/1 mice
Assay: CIA model, Example 3 (cumulative scores vs untreated controls)
Format: in vivo
Settings: Mus musculus; Dose 25 mg/kg
Protocol: The CIA model data were acquired according to the following protocol: • 1. Male DBA/1 mice were anaesthetized by i.p. injection of ketamine/xylazine (1.25 mg/ml:0.25 mg/ml, 100 μl/mouse). • 2. Anaesthetized mice were immunized intradermally at the base of the tail with 0.1 or 0.2 ml of an emulsion composed of 100 or 200 μg bovine type II collagen in Complete Freund's Adjuvant (50 μl/spot x 2 or 4 spots). • 3. At day 21 after the immunization, mice received an intradermal boost of 100 μl of an emulsion composed of 100 μg bovine type II collagen in Incomplete Freund's Adjuvant (50 μl/spot x 2 spots) • 4. After onset of disease symptoms (usually 3-4 days after boost), tetracycline derivatives were administered daily into mice via intraperitoneal or oral routes for 8 to 15 days. Methotrexate (12 mg/kg/day) or dexmethasone (4 mg/kg/day) was used as a control for inflammation suppression. • 5. The disease severity was scored daily for 8-15 days after the appearance of the symptoms. Disease severity was graded as following: • a. Visual clinical score for the presence of inflammation in the fingers/toes of the forepaws and hindpaws: • 1. Erythema and mild swelling confined to the mid-foot (tarsals) or ankle joint • 2. Erythema and mild swelling extending from the ankle to the mid-foot • 3. Erythema and moderate swelling extending from the ankle to the metatarsal joints • 4. Erythema and severe swelling encompassing the ankle, foot, and digits. • b. Clinical swelling score for the presence of paw edema in the forepaws and hindpaws: • Paw thickness was measured daily by an engineering micrometer after isofluorane inhalation or ketamine/xylazine (1.25 mg/ml:0.25 mg/ml, 100 μl/mouse) i.p. injection.
Daily scores and paw swelling measurements for each treatment group of mice were added over the total observation period to obtain a cumulative score. Cumulative scores were compared between untreated controls and treated groups to determine tetracycline-induced inhibition.

First: CCc1cc(N(C)C)c2c(c1O)C(=O)C1=C(O)[C@]3(O)C(=O)C(C(N)=O)=C(O)[C@@H](N(C)C)[C@@H]3C[C@@H]1C2 [H]
Second: CO/N=C(\C)c1cc(N(C)C)c2c(c1O)C(=O)C1=C(O)[C@]3(O)C(=O)C(C(N)=O)=C(O)[C@@H](N(C)C)[C@@H]3C[C@@H]1C2 [K]
The inhibition in vivo at 25 mg/kg of the first is higher: 41% for the first, 30% for the second.

Going from `CN(C)[C@@H]1C(O)=C(C(N)=O)C(=O)[C@@]2(O)C(O)=C3C(=O)c4c(O)ccc(C5=CCNCC5)c4C[C@H]3C[C@@H]12` [L] to `CN(C)[C@@H]1C(O)=C(C(N)=O)C(=O)[C@@]2(O)C(O)=C3C(=O)c4c(O)ccc(-c5ccc(O)cc5)c4C[C@H]3C[C@@H]12` [N], the inhibition in vivo at 25 mg/kg falls from 48% to 21%.

`CN(C)c1cc(-c2ncco2)c(O)c2c1C[C@H]1C[C@H]3[C@H](N(C)C)C(O)=C(C(N)=O)C(=O)[C@@]3(O)C(O)=C1C2=O` [O] showed an inhibition in vivo at 25 mg/kg of 26%.
